This is an account of results in patent publication US20230398130A1, “METHODS AND COMPOSITIONS FOR DIFFERENTIATING STEM CELLS” (Massachusetts Institute of Technology, priority 2020, published 2023).

The test system of experiment [1] is ISC-enriched organoids. The experiment can be described thus: Primary screen, 384-well 2.5-D organoid differentiation (ENR+CD, 6 days): basal lysozyme secretion (LYZ.NS). The following applies: for Dose.FC.LYZ.NS (log 2 fold change, basal lysozyme secretion): vs plate median. It counts as cell-based, murine. From the text:
(§1) High-throughput screening.

Experiment [2] has as its system ISC-enriched organoids. The experiment can be described thus: Primary screen, 384-well 2.5-D organoid differentiation (ENR+CD, 6 days): carbachol-induced lysozyme secretion (LYZ.S). In kind it is cell-based, murine. The settings on record: vs plate median.
Description: as §1

For experiment [3], the system named is ISC-enriched organoids. In words: Primary screen, 384-well 2.5-D organoid differentiation (ENR+CD, 6 days, Target Selective Inhibitor Library, vs whole-plate median): ATP (CellTiter-Glo 3D, CTG). The following applies: for Dose.FC.CTG (log 2 fold change, ATP): vs plate median.

On to `COc1cc2ncnc(Nc3ccc(Cl)cc3F)c2cc1OC` [ZM 306416], for which the “Z.LYZ.NS (standard z score)” value in the experiment on ISC-enriched organoids [1] (dose 0.08 uM) is reported as 0.912; in the experiment with ISC-enriched organoids [1] (dose 0.40 uM), −1.942; in the experiment with ISC-enriched organoids [1] (dose 2.00 uM), −2.531; with ISC-enriched organoids [1] (dose 10.00 uM), −2.395. In addition, the “Dose.FC.LYZ.NS (log 2 fold change, basal lysozyme secretion)” value with ISC-enriched organoids [1] (dose 0.08 uM) is given as 0.105; in the experiment on ISC-enriched organoids [1] (dose 0.40 uM), −0.223; in the experiment with ISC-enriched organoids [1] (dose 2.00 uM), −0.291; with ISC-enriched organoids [1] (dose 10.00 uM), −0.275. Further, the “Dose.FC.LYZ.S (log 2 fold change, carbachol-induced lysozyme secretion)” value in the experiment with ISC-enriched organoids [2] (dose 0.08 uM) is 0.006; with ISC-enriched organoids [2] (dose 0.40 uM) it was −0.288; in the experiment with ISC-enriched organoids [2] (dose 2.00 uM), −0.403; in the experiment on ISC-enriched organoids [2] (dose 10.00 uM), −0.431. For the same compound, the “Z.CTG (standard z score)” value in the experiment with ISC-enriched organoids [3] (dose 0.08 uM) is −0.190; in the experiment on ISC-enriched organoids [3] (dose 0.40 uM), −1.155; in the experiment on ISC-enriched organoids [3] (dose 2.00 uM), −3.135; in the experiment on ISC-enriched organoids [3] (dose 10.00 uM), −3.559. Also, the “Dose.FC.CTG (log 2 fold change, ATP)” value in the experiment with ISC-enriched organoids [3] (dose 0.08 uM) is listed as −0.080; with ISC-enriched organoids [3] (dose 0.40 uM) it was −0.483; in the experiment on ISC-enriched organoids [3] (dose 2.00 uM), −1.312; in the experiment with ISC-enriched organoids [3] (dose 10.00 uM), −1.490.
With `COc1cc2c(Nc3ccc(NC(=O)c4ccccc4)cc3)ncnc2cc1OCCCN1CCOCC1` [ZM 447439], the “Z.LYZ.NS (standard z score)” value in the experiment on ISC-enriched organoids [1] (dose 0.08 uM) was 0.896; with ISC-enriched organoids [1] (dose 0.40 uM) it was 0.932; in the experiment with ISC-enriched organoids [1] (dose 2.00 uM), 0.456; in the experiment on ISC-enriched organoids [1] (dose 10.00 uM), −0.695. The “Dose.FC.LYZ.NS (log 2 fold change, basal lysozyme secretion)” value in the experiment with ISC-enriched organoids [1] (dose 0.08 uM) was 0.103; in the experiment with ISC-enriched organoids [1] (dose 0.40 uM), 0.107; with ISC-enriched organoids [1] (dose 2.00 uM), 0.052; in the experiment with ISC-enriched organoids [1] (dose 10.00 uM), −0.080. The “Dose.FC.LYZ.S (log 2 fold change, carbachol-induced lysozyme secretion)” value with ISC-enriched organoids [2] (dose 0.08 uM) is recorded as 0.171; in the experiment with ISC-enriched organoids [2] (dose 0.40 uM) it was 0.108; in the experiment with ISC-enriched organoids [2] (dose 2.00 uM) it was 0.074; in the experiment on ISC-enriched organoids [2] (dose 10.00 uM) it was −0.132. The “Z.CTG (standard z score)” value is reported as 1.222 in the experiment on ISC-enriched organoids [3] (dose 0.08 uM), 0.725 in the experiment on ISC-enriched organoids [3] (dose 0.40 uM), 0.552 in the experiment with ISC-enriched organoids [3] (dose 2.00 uM) and −0.574 in the experiment on ISC-enriched organoids [3] (dose 10.00 uM). The “Dose.FC.CTG (log 2 fold change, ATP)” value was 0.512 with ISC-enriched organoids [3] (dose 0.08 uM), 0.304 in the experiment with ISC-enriched organoids [3] (dose 0.40 uM), 0.231 in the experiment on ISC-enriched organoids [3] (dose 2.00 uM) and −0.240 in the experiment with ISC-enriched organoids [3] (dose 10.00 uM).
Regarding `COc1nc(C)cnc1NS(=O)(=O)c1cccnc1-c1ccc(-c2nnco2)cc1` [Zibotentan (ZD4054)], the “Z.LYZ.NS (standard z score)” value in the experiment on ISC-enriched organoids [1] (dose 0.08 uM) is recorded as 0.820; with ISC-enriched organoids [1] (dose 0.40 uM) it was 0.474; with ISC-enriched organoids [1] (dose 2.00 uM), −0.029; with ISC-enriched organoids [1] (dose 10.00 uM), 0.877. Further, the “Dose.FC.LYZ.NS (log 2 fold change, basal lysozyme secretion)” value in the experiment on ISC-enriched organoids [1] (dose 0.08 uM) was 0.094; in the experiment with ISC-enriched organoids [1] (dose 0.40 uM), 0.054; with ISC-enriched organoids [1] (dose 2.00 uM), −0.003; in the experiment on ISC-enriched organoids [1] (dose 10.00 uM) it was 0.101. In addition, the “Dose.FC.LYZ.S (log 2 fold change, carbachol-induced lysozyme secretion)” value is listed as 0.168 in the experiment with ISC-enriched organoids [2] (dose 0.08 uM), 0.130 in the experiment on ISC-enriched organoids [2] (dose 0.40 uM), −0.038 in the experiment on ISC-enriched organoids [2] (dose 2.00 uM) and 0.050 with ISC-enriched organoids [2] (dose 10.00 uM). For the same compound, the “Z.CTG (standard z score)” value is 0.249 in the experiment on ISC-enriched organoids [3] (dose 0.08 uM), −0.022 in the experiment on ISC-enriched organoids [3] (dose 0.40 uM), −1.834 in the experiment on ISC-enriched organoids [3] (dose 2.00 uM) and −0.003 with ISC-enriched organoids [3] (dose 10.00 uM). The “Dose.FC.CTG (log 2 fold change, ATP)” value was 0.104 with ISC-enriched organoids [3] (dose 0.08 uM), −0.009 in the experiment with ISC-enriched organoids [3] (dose 0.40 uM), −0.768 with ISC-enriched organoids [3] (dose 2.00 uM) and −0.001 with ISC-enriched organoids [3] (dose 10.00 uM).
